Series [1] can be described thus: % SPP100 in urine and faeces following single oral dose of 300 mg [14C]SPP100 studied in healthy men. The class given is ADME, organism-based, Urine/Feces. Conditions: human, in vivo, at 300 mg.
Another series deals with T1, CYP2A6 (Homo sapiens, UniProt P11509).
T1 sequence (P11509 whole entry): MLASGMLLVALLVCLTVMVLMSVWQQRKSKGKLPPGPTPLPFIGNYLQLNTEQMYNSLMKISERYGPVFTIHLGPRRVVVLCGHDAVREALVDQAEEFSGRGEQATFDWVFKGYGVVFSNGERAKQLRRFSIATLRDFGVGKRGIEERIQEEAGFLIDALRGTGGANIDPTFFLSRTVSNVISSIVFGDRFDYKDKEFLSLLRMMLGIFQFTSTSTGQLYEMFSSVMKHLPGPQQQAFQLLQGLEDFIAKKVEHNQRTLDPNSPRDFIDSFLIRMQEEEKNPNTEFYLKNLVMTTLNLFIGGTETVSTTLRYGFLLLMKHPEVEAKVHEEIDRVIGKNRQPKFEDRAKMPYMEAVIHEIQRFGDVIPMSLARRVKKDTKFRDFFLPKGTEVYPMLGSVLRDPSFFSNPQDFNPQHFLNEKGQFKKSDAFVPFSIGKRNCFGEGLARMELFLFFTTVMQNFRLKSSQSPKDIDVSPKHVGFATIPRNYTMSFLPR
In words: Inhibitory activity of 20 uM SPP100 on 39 Pmoles of cDNA-derived CYP2A6 enzyme in microsome prepared from human lymphoblastoid cell line. Conditions: probe coumarine. The arrangement: conc 20 uM, interact cpd conc 3 uM. The class given is ADME, microsomes.

Series [2] addresses T2, CYP2D6 (Homo sapiens, UniProt P10635). Nature of the series: Inhibitory activity of 200 µM SPP100 on cDNA-derived CYP2D6 enzyme in microsome prepared from human lymphoblastoid cell line. The arrangement: conc 200 µM, interact cpd conc 10 uM. The format is ADME, microsomes. Conditions: probe bufuralol (10 uM).
The next series concerns the target CYP2C9 (Homo sapiens, UniProt P11712). Nature of the series: Inhibition of CYP2C9 in human liver microsomes from 10 healthy donors at 200 uM aliskiren (SPP100). The class given is ADME, Microsome. Also on record: conc 200 uM. Conditions: probe S-warfarin (7-hydroxylation).
In series [3] the target is T2, CYP2D6. Nature of the series: Inhibition of CYP2D6 in human liver microsomes from 10 healthy donors at 200 uM aliskiren (SPP100). Also on record: conc 200 uM. Conditions: probe bufuralol (1'-hydroxylation). The class given is ADME, Microsome.
The nature of series [4]: Excretion (168h) of radioactivity in faeces following intravenous administration of [14C] aliskiren hemifumarate at 10 mg.Kg-1 level in rat. The class given is ADME, organism-based, Lister-Hooded, Feces. As to conditions: in vivo.
Series [5] in a line: % of radioactivity (48h) recovered in gastrointestinal tract of receiver rat following duodenal infusion of radioactivity through bile from donor rat treated with single intravenous administration of 10 mg.Kg-1 [14C] aliskiren hemifumarate. As to conditions: in vivo. The class given is ADME, organism-based, HAN:WIST(SPF).
A short description of series [6]: Elimination (0-96h) of radioactivity via biliary route following oral administration of [14C] aliskiren hemifumarate at 100 mg.Kg-1 level in rat. The format is ADME, organism-based, Albino HAN:WIST, Bile. Conditions: in vivo.
A short description of series [7]: Excretion of radioactivity (24-48h) in faeces following single intravenous dose of 10 mg.Kg-1 [14C] aliskiren hemifumarate in rat. The class given is ADME, organism-based, Albino HAN:WIST, Feces. Conditions: in vivo.
Series [8] is described as follows: Excretion of radioactivity (72-96h) in faeces following single intravenous dose of 10 mg.Kg-1 [14C] aliskiren hemifumarate in rat. The class given is ADME, organism-based, Albino HAN:WIST, Feces. As to conditions: in vivo.
A short description of series [9]: Excretion of radioactivity (0-96h) in faeces following single oral dose of 100 mg.Kg-1 [14C] aliskiren hemifumarate in rat. The class given is ADME, organism-based, Albino HAN:WIST, Feces. Conditions: in vivo.
Series [10] is described as follows: Cmax of radioactivity following repeated oral administration of [14C] aliskiren hemifumarate at 100 mg.Kg-1 level studied after 2h of dosing on day 1 in rat. The class given is ADME, organism-based, Albino HAN:WIST. Conditions: in vivo, read-out: Cmax(1).
Series [11] can be described thus: Concentration of radioactivity in the colon wall following repeated oral administration of [14C] aliskiren hemifumarate at 100 mg.Kg-1 level studied at 2h after 10th dose in rat. As to conditions: in vivo. The class given is ADME, organism-based, Albino HAN:WIST.
A short description of series [12]: Concentration of radioactivity in the kidney medulla following repeated oral administration of [14C] aliskiren hemifumarate at 100 mg.Kg-1 level studied at 2h after 3rd dose in rat. The format is ADME, organism-based, Albino HAN:WIST, Renal medulla. Conditions: in vivo.
Series [13] is described as follows: Excretion of radioactivity (0-384h) in urine following 10 day repeated oral administration of [14C] aliskiren hemifumarate at 100 mg.Kg-1 level studied in rat. As to conditions: in vivo. The format is ADME, organism-based, Albino HAN:WIST.
The nature of series [14]: Cmax of aliskiren hemifumarate following single dosing of SPP100B oral solution at 160 mg level studied on day 1 in men. The class given is ADME, organism-based. As to conditions: male, human, plasma.
Series [15] is described as follows: Tmax of aliskiren hemifumarate following single dosing of SPP100B oral solution at 80 mg level studied on day 1 in men. The class given is ADME, organism-based. As to conditions: male, human, plasma.
Series [16] is described as follows: Cmax of aliskiren hemifumarate following 8 day once-daily dosing of SPP100B oral solution at 160 mg level studied on day 8 in men. The format is ADME, organism-based. Conditions: male, human, plasma.
A short description of series [17]: AUC of unlabeled aliskiren hemifumarate following single intravenous dose of aliskiren hemifumarate at 10 mg.Kg-1 level in mouse. The format is ADME, organism-based. Conditions: TgRasH2, mouse, plasma.
Series [18] can be described thus: Tmax of unlabeled aliskiren hemifumarate following single intravenous dose of aliskiren hemifumarate at 10 mg.Kg-1 level in mouse. The class given is ADME, organism-based. As to conditions: TgRasH2, mouse, plasma.
A short description of series [19]: Tmax (0-96h) of unlabeled aliskiren hemifumarate following oral administration of aliskiren hemifumarate at 100 mg.Kg-1 level in rat. The format is ADME, organism-based. As to conditions: Albino HAN:WIST, plasma.
The nature of series [20]: AUC (0-96h) of unlabeled aliskiren hemifumarate following oral administration of aliskiren hemifumarate at 100 mg.Kg-1 level in rat. The class given is ADME, organism-based. Conditions: Albino HAN:WIST, plasma.
Series [21] is described as follows: Effect of 2 week oral dosing of aliskiren hemifumarate at 100 mg.Kg-1 level on plasma magnesium level in female Callithrix jacchus. As to conditions: marmoset, 336 h. The format is toxicity, organism-based.
Series [22] can be described thus: Cmaxspec of aliskiren hemifumarate following 2 week oral dosing of aliskiren hemifumarate at 100 mg.Kg-1 level studied on day 1 in male Callithrix jacchus. The class given is ADME, organism-based, Plasma. Conditions: marmoset, in vivo, 336 h.
Series [23] in a line: Tmax of aliskiren hemifumarate following 4 week oral dietary dosing of aliskiren hemifumarate at 2000 mg.Kg-1 level in female mouse. The class given is ADME, organism-based. Conditions: CB6F1-TGrasH2, mouse, in vivo.
Series [24] can be described thus: Cmax of aliskiren hemifumarate following 4 week oral dietary dosing of aliskiren hemifumarate at 1000 mg.Kg-1 level in male mouse. The class given is ADME, organism-based. As to conditions: CB6F1-TGrasH2, mouse, in vivo.
Series [25] can be described thus: Cmax of aliskiren hemifumarate following 4 week oral dietary dosing of aliskiren hemifumarate at 1500 mg.Kg-1 level in male mouse. The class given is ADME, organism-based. As to conditions: CB6F1-TGrasH2, mouse, in vivo.
A short description of series [26]: Cmax of aliskiren hemifumarate following 4 week oral dietary dosing of aliskiren hemifumarate at 2000 mg.Kg-1 level in male mouse. The format is ADME, organism-based. Conditions: CB6F1-TGrasH2, mouse, in vivo.
Series [27] can be described thus: Cmax/dose of aliskiren hemifumarate following 4 week oral dietary dosing of aliskiren hemifumarate at 500 mg.Kg-1 level in male mouse. The class given is ADME, organism-based, CB6F1-TGrasH2. As to conditions: in vivo, 672 h.
Series [28] in a line: Cmax/dose of aliskiren hemifumarate following 4 week oral dietary dosing of aliskiren hemifumarate at 1500 mg.Kg-1 level in male mouse. The format is ADME, organism-based, CB6F1-TGrasH2. As to conditions: in vivo, 672 h.
A short description of series [29]: Cmax/dose of aliskiren hemifumarate following 4 week oral dietary dosing of aliskiren hemifumarate at 1500 mg.Kg-1 level in female mouse. The class given is ADME, organism-based, CB6F1-TGrasH2. Conditions: in vivo, 672 h.
The nature of series [30]: AUC (0-24h) of aliskiren hemifumarate following 4 week oral dietary dosing of aliskiren hemifumarate at 500 mg.Kg-1 level in male mouse. The class given is ADME, organism-based. Conditions: CB6F1-TGrasH2, mouse, plasma.
Series [31] in a line: AUCspec of aliskiren hemifumarate following 2 week oral dosing of aliskiren hemifumarate at 10 mg.Kg-1 level studied on day 1 in male Callithrix jacchus. The class given is ADME, organism-based, Plasma. Conditions: marmoset, in vivo, 336 h.
The nature of series [32]: AUCspec of aliskiren hemifumarate following 2 week oral dosing of aliskiren hemifumarate at 10 mg.Kg-1 level studied on […] in male Callithrix jacchus. The class given is ADME, organism-based, Plasma. Conditions: marmoset, in vivo, 336 h.

T2 sequence (P10635 whole entry): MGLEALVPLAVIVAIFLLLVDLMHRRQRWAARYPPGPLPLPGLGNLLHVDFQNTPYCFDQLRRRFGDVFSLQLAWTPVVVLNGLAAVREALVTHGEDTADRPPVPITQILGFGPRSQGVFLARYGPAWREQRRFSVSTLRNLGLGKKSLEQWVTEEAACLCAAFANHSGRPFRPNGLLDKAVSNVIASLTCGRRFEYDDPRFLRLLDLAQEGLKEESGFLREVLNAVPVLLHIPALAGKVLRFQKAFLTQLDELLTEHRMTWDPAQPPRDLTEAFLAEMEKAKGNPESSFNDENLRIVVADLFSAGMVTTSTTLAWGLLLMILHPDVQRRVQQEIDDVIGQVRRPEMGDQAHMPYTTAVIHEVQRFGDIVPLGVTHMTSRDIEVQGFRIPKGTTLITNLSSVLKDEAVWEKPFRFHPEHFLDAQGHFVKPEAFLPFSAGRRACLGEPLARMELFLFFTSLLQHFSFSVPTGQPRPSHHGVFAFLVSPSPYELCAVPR
Chain of CYP2C9 (P11712 whole entry): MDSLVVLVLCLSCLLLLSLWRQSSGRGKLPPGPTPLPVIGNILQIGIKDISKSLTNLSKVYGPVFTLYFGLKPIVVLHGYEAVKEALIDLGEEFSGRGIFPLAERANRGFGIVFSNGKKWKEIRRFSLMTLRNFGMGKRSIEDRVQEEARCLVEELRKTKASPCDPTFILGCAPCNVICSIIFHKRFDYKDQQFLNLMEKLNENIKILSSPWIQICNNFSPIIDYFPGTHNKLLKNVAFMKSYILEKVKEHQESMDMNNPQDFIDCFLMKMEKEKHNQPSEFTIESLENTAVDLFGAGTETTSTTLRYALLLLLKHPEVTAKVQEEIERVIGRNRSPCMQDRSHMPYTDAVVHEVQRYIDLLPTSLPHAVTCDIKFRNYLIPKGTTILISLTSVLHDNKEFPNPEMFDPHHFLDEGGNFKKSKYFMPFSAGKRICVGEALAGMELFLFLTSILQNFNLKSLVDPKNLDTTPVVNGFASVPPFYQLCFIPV

Consider `COCCCOc1cc(C[C@@H](C[C@H](N)[C@@H](O)C[C@H](C(=O)NCC(C)(C)C(N)=O)C(C)C)C(C)C)ccc1OC`, for which the Compound recovery in series [1] is listed as 79.8%. In addition, the inhibition at 20 µM on CYP2A6 is -2.1%. In addition, at CYP2D6 [2], the inhibition at 200 uM turned out to be 37%. Moreover, the inhibition at 200 µM against CYP2C9 is 32.1%; against CYP2D6 [3], 32.9%.

For `COCCCOc1cc(C[C@@H](C[C@H](N)[C@@H](O)C[C@H](C(=O)NCC([14CH3])([14CH3])C(N)=O)C(C)C)C(C)C)ccc1OC.O=C(O)/C=C/C(=O)O`, the Radiolabel recovery in [4] is given as 75%; in series [5] it was 59.8%; in [6], “OUTCOME = Observed/Elimination of radioactivity was mainly via biliary route”; in series [7] it was 28.2%; in series [8] it was 2.07%; in series [9] it was 4.2%. Moreover, the Radiolabel recovery result is recorded as “OUTCOME = Observed, VALUE = Highest radioactivity concentration was observed” in series [11]; “OUTCOME = Detected” in [12]; 0.3% in [13]. Moreover, the Cmax in series [10] worked out at 1090 nM.

For `COCCCOc1cc(C[C@@H](C[C@H](N)[C@@H](O)C[C@H](C(=O)NCC(C)(C)C(N)=O)C(C)C)C(C)C)ccc1OC.COCCCOc1cc(C[C@@H](C[C@H](N)[C@@H](O)C[C@H](C(=O)NCC(C)(C)C(N)=O)C(C)C)C(C)C)ccc1OC.O=C(O)/C=C/C(=O)O` [ALISKIREN FUMARATE], the Cmax in series [14] amounted to 21.5 ng/mL; in series [16], 39.1 ng/mL; in series [24] it was 879 ng/mL; in series [25], 363 ng/mL; in [26], 439 ng/mL. Also, the time of peak concentration (Tmax) in series [15] stood at 168 min; in [18] it was 4.98 min; in series [19], 15 min; in [23], 30 min. Also, the AUC in series [17] came out at 9.03 µM·h. Further, the AUC(0-t) at 96 h in [20] amounted to 3.01 µM·h. Further, the “Plasma magnesium_CHANGE_BY” value in series [21] is recorded as 130%. The Cmax normalised is given as 0.072 (ug/ml)/(mg/kg) in [22], 0.624 (ng/mL)/(mg/kg/day) in series [27], 0.242 (ng/mL)/(mg/kg/day) in [28] and 0.68 (ng/mL)/(mg/kg/day) in series [29]. In series [30], this molecule registered an AUC(0-t) at 24 h of 1700 ng·h/mL. The AUC normalised is 2.2 ((ug.h.ml-1)/(mg/kg) in series [31] and 3.39 ((ug.h.ml-1)/(mg/kg) in [32].

Source of the values: ChEMBL document CHEMBL3508693 (2016).
